In patent publication US9144595B2, “APLs for treating arthritis” (University of Tennessee Research Foundation, priority 2009, dated 2015):

How the values were obtained:
[1] = system: DR1 Transgenic mice; test: Effect of A12 on CIA in DR1 Transgenic mice (CII plus A12; intravenous A12 after CII-immunization); assay type: in vivo, mouse; conditions: for Incidence: arthritis incidence
Protocol: Assuming that CII263-270 was key to developing immunity to the intact CII molecule, a number of analog peptides where amino acids within this small segment were substituted with those found in the corresponding sites of nonarthritogenic type I collagen were prepared and tested. […] The APL A12 developed for this study has the following amino acid sequence: LGPKGQTGEBG[IAGNKGDQGPK]GEBGPA (SEQ ID NO: 3) where B=hydroxproline. The core determinant of human CII263-270 is bracketed. The underlined residues are those substituted to produce APL A12. The residues amino terminal and carboxy terminal to the core determinant is from the normal human CII sequence.

[2] = system: RA PBMC; test: 27 cytokines multiplex assay of 48 h RA PBMC culture supernatants; assay type: cell-based, human; conditions: APL A12 10 μg/ml + α1(II) 50 μg/ml, 6 RA patients
Protocol: We assessed the ability of APL A12 added to cultures of PBMC to affect production of IFNγ and other Th1 and Th2 cytokines by the cultured PBMC stimulated with α1(II) from 18 RA patients, 16 of whom had known HLA DR B1 haplotypes. 16 of these patients were taking methothexate, 10 NSAIDS and 12 anti-TNF agents. One patient was taking Arava. Isolated PBMC were resuspended in Dulbecco's minimal essential medium containing penicillin (100 U/ml), streptomycin (100 μg/ml), 9% fetal calf serum (FCS), and non-essential amino acids thereafter referred to as “Complete Medium” at a concentration of 4×10^6 cells/ml. Aliquots (0.5 ml) of the cell suspension were dispensed into wells of 48 well tissue culture plates (NUNC, Roskilde, Denmark).

[3] = system: splenocytes and lymph node cells from DR1 Transgenic mice; test: Cytokine secretion by splenocytes and lymph node cells of DR1 Transgenic mice immunized with CII or Analog A12; assay type: cell-based, mouse
From the text: One of the most important characteristics of the A12 analog peptide was its ability to induce a Th2-type cytokine secretion profile. In this set of experiments, DR1 transgenic mice were immunized with A12 peptide or CII emulsified with CFA. […] In contrast, cells from mice immunized with CII generated predominantly a Th1 response to the wild-type peptide. […] The ability to induce the secretion of Th2 cytokines may explain the profound suppressive effects A12 has on the development of CIA.
One of the most important characteristics of the A12 analog peptide is its ability to reduce a Th1 cytokine profile and induce a Th2-type cytokine secretion profile in humans and in DR1 transgenic mice. In work we have published, DR1 transgenic mice were immunized with A12 peptide or CII emulsified with CFA. […] In contrast, cells from mice immunized with CII generated multiple cytokines, but predominantly a Th1 response to the wild-type peptide. Importantly, although immunized with CII, they responded to A12 with only a Th2 response.

[4] = system: Peyer's Patch cells of DR1 TCRtg+/+ mice; test: Oral APL A12: IL-17 and IL-10 in cultures of Peyer's Patch cells of DR1 TCRtg+/+ mice; assay type: in vivo, mouse
[5] = system: Spleen tyrosine kinase (Syk); test: Syk phosphorylation in CD4+ T cells of DR1/TCR transgenic mice (flow cytometry); assay type: cell-based, mouse; conditions: APCs prepulsed with peptide, compared with media controls
From the text: Since T cells clearly responded to A12 differently than to the wild type A2 peptide, we analyzed them for the possibility that they might be utilizing an alternative signaling pathway. Spleen tyrosine kinase (Syk), a kinase ordinarily utilized by B cells was selected for further analysis. In these experiments, CD4^+ T-cells from the DR1/TCR transgenic mice were purified by negative selection (using a Miltenyi kit) and stained with an antibody specific for phospho Syk following exposure to APCs prepulsed with either A2 or A12. […] Histograms were generated using flow cytometry with gating specifically on the CD4^+ population, confirming that the changes observed were produced by T-cells.
FIGS. 5A and 5B show T cell signaling induced by A2 and A12. Flow cytometry was performed using purified CD4+ T cells from spleens of DR1 TCR Tg mice. The T cells were stimulated by APCs pre-pulsed with A2, A12 or no peptide (Control) for 5 minutes. The cells were then fixed, permeabilized, and stained with an antibody specific for phospho-Syk (Tyr 323) (left panel) or phospho-ERK 1/2 (right panel) and analyzed by flow cytometry. Both plots are gated on CD4 T cells. Axes 510, 540, show the number of events and axes 515, 545 show a logarithmic scale for Anti-phospho Erk and Syk respectively, for FIGS. 5A and 5B. In FIG. 5A line 520 is for A2 peptide, line 525 is the control, and line 530 is the A12 peptide. […]

[6] = Immunogen Analog A12, cultured with 100 μg/ml A12
[7] = Immunogen Analog A12, cultured with 100 μg/ml PPD
[8] = Immunogen Analog A12, cultured with 100 μg/ml Wild-type Peptide
[9] = Immunogen Analog A12, cultured with 100 μg/ml α1(II)
[10] = Immunogen CII, cultured with 100 μg/ml A12
[11] = mice gavaged with 50 μg APL A12 9 times over 2 weeks, cells cultured with PBS
[12] = mice gavaged with 50 μg APL A12, cells cultured with APL A12 50 μg/ml
[13] = mice gavaged with 50 μg APL A12, cells cultured with CII263-270 50 μg/ml
[14] = mice gavaged with PBS, cells cultured with APL A12 50 μg/ml

LGPKGQTGEBGIAGAKGDQGPKGEBGPA [APL A12]
Antibodies to CII ([1]; 0.01 mg (so in the source) i.v.): 33 ± 11 | Antibodies to CII ([1]; 0.5 mg total i.v.): 24 ± 7 (p ≦ 0.025) | Antibodies to CII ([1]; 1 mg total i.v.): 22 ± 9 (p ≦ 0.025) | antibody production to CII ([1]; DR1-Transgenic mice): significantly decreased | Incidence ([1]; 0.01 mg (so in the source) i.v. on days 10, 12, 14 after CII-immunization): 5/10 | Incidence ([1]; 0.5 mg total i.v. on days 10, 12, 14 after CII-immunization): 3/10 | Incidence ([1]; 1 mg total i.v. on days 10, 12, 14 after CII-immunization): 1/10 (p = 0.01) | immunity to CII and arthritis ([1]; high-responder DR1 mice): profoundly suppress | incidence of arthritis and number of arthritic limbs ([1]; mice immunized with CII plus A12): dose-related decrease | IL-1ra [2]: 2013 ± 220 pg/mL | IL-2 [2]: 6 ± 0.9 pg/mL | IL-10 [2]: 555 ± 104 pg/mL | IP-10 [2]: 114 ± 91 pg/mL | PDGF-bb [2]: 39 ± 25 pg/mL | RANTES [2]: 750 ± 183 pg/mL | TNFα [2]: 84 ± 17 pg/mL | IFN-γ [3, 6]: 0 pg/mL | IL-10 [3, 6]: 808 pg/mL | Il-4 [3, 6]: 31 pg/mL | IFN-γ [3, 7]: 2,225 pg/ml | IL-10 [3, 7]: 248 pg/mL | Il-4 [3, 7]: 0 pg/mL | IFN-γ [3, 8]: 175 pg/mL | IL-10 [3, 8]: 792 pg/mL | Il-4 [3, 8]: 23 pg/mL | IFN-γ [3, 9]: 0 pg/mL | IL-10 [3, 9]: 680 pg/mL | Il-4 [3, 9]: 45 pg/mL | IFN-γ [3, 10]: 0 pg/mL | IL-10 [3, 10]: 610 pg/mL | Il-4 [3, 10]: 40 pg/mL | II-10 Levels in Peyer's Patch Cultures [4, 11]: 116 pg/mL | IL-17 Levels in Peyer's Patch Cultures [4, 11]: 2.4 pg/mL | II-10 Levels in Peyer's Patch Cultures [4, 12]: 105 pg/mL | IL-17 Levels in Peyer's Patch Cultures [4, 12]: 1.8 pg/mL | II-10 Levels in Peyer's Patch Cultures [4, 13]: 94 pg/mL | IL-17 Levels in Peyer's Patch Cultures [4, 13]: 2.4 pg/mL | II-10 Levels in Peyer's Patch Cultures [4, 14]: 27 pg/mL | IL-17 Levels in Peyer's Patch Cultures [4, 14]: 16 pg/mL | Syk phosphorylation [5]: induced significant Syk phosphorylation
